pIC50: −log10 of the molar value. The source made the active and inactive calls. The rule behind the calls is not given here.
Tests used:
[1] = target: T1, 26S proteasome non-ATPase regulatory subunit 10 (Homo sapiens) (UniProt O75832); test: Binding affinity to gankyrin (unknown origin) assessed as fold increase in change in melting temperature at 300 uM by thermal shift assay relative to control
T1 sequence (whole entry): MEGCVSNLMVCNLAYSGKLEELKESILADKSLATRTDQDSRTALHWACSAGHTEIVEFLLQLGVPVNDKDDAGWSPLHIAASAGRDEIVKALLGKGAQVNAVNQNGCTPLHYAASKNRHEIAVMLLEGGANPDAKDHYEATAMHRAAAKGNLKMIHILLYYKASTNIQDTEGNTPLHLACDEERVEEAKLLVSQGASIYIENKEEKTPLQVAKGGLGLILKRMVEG

HepG2 [2] = test: Antiproliferative activity against human HepG2 cells assessed as reduction in cell viability incubated for 72 hrs by MTT assay; format: functional, cell-based; details: HepG2, 72 h
Hep 3B2 [3] = test: Antiproliferative activity against human Hep3B cells assessed as reduction in cell viability incubated for 72 hrs by MTT assay; format: functional, cell-based
HepG2 [4] = test: Antiproliferative activity against human HepG2 cells assessed as reduction in cell viability at 50 uM incubated for 72 hrs by MTT assay relative to control; format: functional; details: HepG2, 72 h
Hep 3B2 [5] = test: Antiproliferative activity against human Hep3B cells assessed as reduction in cell viability at 50 uM incubated for 72 hrs by MTT assay relative to control; format: functional

| SMILES | Activity [1] | pIC50 (HepG2 [2]) | pIC50 (Hep 3B2 [3]) | also measured |
| --- | --- | --- | --- | --- |
| COC(=O)c1ccc(-n2cc(CCCOS(=O)(=O)c3ccc(C#N)cc3)nn2)cc1 | Active |  |  |  |
| COC(=O)c1ccc(-n2cc(CCCOS(=O)(=O)c3cccc(OC)c3)nn2)cc1 |  | 4.43 | 4.68 | fold change (FC) [1]: 1.9 |
| CCc1cccc(S(=O)(=O)OCCCc2cn(-c3ccc(C(=O)OC)cc3)nn2)c1 | inactive |  |  |  |
| CCc1ccc(S(=O)(=O)OCCCc2cn(-c3ccc(C(=O)OC)cc3)nn2)cc1 | Active |  |  |  |
| COC(=O)c1ccc(-n2cc(CCCOS(=O)(=O)c3ccc(C(C)C)cc3)nn2)cc1 | inactive |  |  |  |
| CNC(=O)c1ccc(S(=O)(=O)OCCCc2cn(-c3ccc(C(=O)OC)cc3)nn2)cc1 | inactive |  |  |  |
| COC(=O)c1ccc(-n2cc(CCCOS(=O)(=O)c3ccc(C(=O)OC)cc3)nn2)cc1 | Active |  |  |  |
| COC(=O)c1ccc(-n2cc(CCCOS(=O)(=O)c3cccc(C#N)c3)nn2)cc1 | Active |  |  |  |
| COC(=O)c1ccc(-n2cc(CCCOS(=O)(=O)c3cccc(C(=O)OC)c3)nn2)cc1 | inactive |  |  |  |
| COC(=O)c1ccc(-n2cc(CCCOS(=O)(=O)c3ccc(OC)cc3)nn2)cc1 | Active |  |  |  |

Now from value to compound, other results behind:

| Activity [1] | pIC50 (HepG2 [2]) | SMILES | pIC50 (Hep 3B2 [3]) | also measured |
| --- | --- | --- | --- | --- |
| inactive |  | COC(=O)c1ccc(-n2cc(CCCOS(=O)(=O)c3ccccc3)nn2)cc1 |  |  |
| inactive |  | COC(=O)c1ccc(-n2cc(CCCOS(=O)(=O)c3cccc(C)c3)nn2)cc1 |  |  |
|  | < 4.30 | COC(=O)c1ccc(-n2cc(CCCOS(=O)(=O)c3cccc(F)c3)nn2)cc1 | < 4.30 | fold change (FC) [1]: 1.4; inhibition at 50 µM (HepG2 [4]): 0%; inhibition at 50 µM (Hep 3B2 [5]): 0% |
| Active | < 4.30 | COC(=O)c1ccc(-n2cc(CCCOS(=O)(=O)c3ccc(C)cc3)nn2)cc1 | < 4.30 | inhibition at 50 µM (HepG2 [4]): 0%; inhibition at 50 µM (Hep 3B2 [5]): 0% |
|  | 4.76 | COC(=O)c1ccc(-n2cc(CCCOS(=O)(=O)c3ccc(I)cc3)nn2)cc1 | 4.60 | fold change (FC) [1]: 1.7 |
|  | < 4.30 | COC(=O)c1ccc(-n2cc(CCCOS(=O)(=O)c3ccccc3C)nn2)cc1 | < 4.30 | fold change (FC) [1]: 2; inhibition at 50 µM (HepG2 [4]): 0%; inhibition at 50 µM (Hep 3B2 [5]): 0% |
| inactive |  | COC(=O)c1ccc(-n2cc(CCCOS(=O)(=O)c3cccc(Cl)c3)nn2)cc1 |  |  |
|  | 4.34 | COC(=O)c1ccc(-n2cc(CCCOS(=O)(=O)c3ccc(-c4ccccc4)cc3)nn2)cc1 | 4.59 | fold change (FC) [1]: 2.3 |
